This is an account of results in PubChem BioAssay AID2061108 (Research group of Professor Matthew Todd, School of …, 2025).

Calls of active or inactive are those of the source. The rule behind the calls is not given here.

Holding throughout (test): antibacterial and antifungal growth inhibition panel, profiling panel, Idler compounds, first plate, PMBN-permeabilized strains (AID 2061108)
Holding throughout (set-up): haemolysis: dose or concentration left out as unconfirmed

Test [1] relates to A. baumannii ATCC 17978 + PMBN growth inhibition, 100 uM. As to conditions: A. baumannii plus PMBN growth inhibition, 100 µM; stronger effect = higher value.
Test [2] has as its system C. albicans NCPF 3281 growth inhibition, 100 uM. As to conditions: S. aureus ATCC 9144 growth inhibition; measured here: C. albicans NCPF 3281; at 100 µM; stronger effect = higher value.
Test [3] relates to S. aureus ATCC 9144 growth inhibition, 100 uM. As to conditions: S. aureus ATCC 9144 growth inhibition; at 100 µM; stronger effect = higher value.
Test [4] relates to red blood cell haemolysis. The settings on record: stronger effect = higher value; dose or concentration not given here.
The subject of test [5] is M. avium growth inhibition, 10 uM. The settings on record: M. avium growth inhibition, 10 µM.
Test [6] relates to M. abscessus growth inhibition, 10 uM. As to conditions: S. aureus ATCC 9144 growth inhibition; measured here: M. abscessus; at 10 µM.
The subject of test [7] is A. baumannii ATCC 17978 growth inhibition, 100 uM. The settings on record: S. aureus ATCC 9144 growth inhibition; measured here: A. baumannii ATCC 17978; at 100 µM; stronger effect = higher value.
Test [8] concerns E. coli NCTC 12923 + PMBN growth inhibition, 100 uM. As to conditions: S. aureus ATCC 9144 growth inhibition; measured here: E. coli plus PMBN; at 100 µM; stronger effect = higher value.
Test [9] deals with E. coli NCTC 12923 growth inhibition, 100 uM. As to conditions: E. coli NCTC 12923 growth inhibition, 100 µM; stronger effect = higher value.

The term inhibition denotes the change of the read-out against control, counted positive when it falls. Regarding `Nc1ncnc2cc(-c3cccc(S(N)(=O)=O)c3)sc12`, the inhibition in test [1] is -11.6%; in [2], -67.9%; in test [3] it was 27.3%; in test [5] it was 50.5%; in test [6], 0.72%; in test [7], -9.52%. In addition, the values for the inhibition in test [8] and in test [9] were 91.6% and 1.22%, respectively. The haemolysis in test [4] was -0.345%.

In the case of `CC(N)C(=O)NS(=O)(=O)c1cccc(-c2cc3ncnc(N)c3s2)c1` (stereo not given), the inhibition is -25.6% in [1]; -29.6% in test [2]; -35.4% (inactive) in test [3]; 45.2% in test [5]; -0.285% in [6]; -14.5% in [7]. In addition, the inhibition in test [8] is -31.8%; in [9] it was -32.4%. For the same molecule, the haemolysis in test [4] came out at 0.129%.

Regarding `O=S(=O)(F)c1ncc(Cl)cc1Br`, the inhibition was 5.94% in test [1]; -41.4% in test [2]; -14.2% (inactive) in test [3]; 0.219% in test [5]; -0.925% in test [6]; 0.595% in test [7]. In addition, the inhibition in test [8] is -23.7%; in test [9] it was -27.7%. In test [4], the haemolysis came out at 0.564%.

With `COc1cccc(C(=O)Nc2nc3cc(Cl)c(OC)cc3s2)c1`, the inhibition in test [1] was 19.1%; in [2], -74.4%; in test [3], 2.28% (inactive); in [5] it was 0.396%; in [6], -0.266%; in test [7], -4.34%. Besides, the inhibition in test [8] is -13.2%; in test [9] it was -30.8%. In addition, the haemolysis in test [4] is 4.42%.

Take `O=C(N/N=C/c1ccncc1O)c1ccncc1`: the inhibition in [1] was 22.8%; in test [2] it was 79.2%; in [3] it was 22% (inactive); in test [5] it was -1.89%; in [6], -0.377%; in test [7], 12.6%. The inhibition in [8] stood at 1.36%; in test [9] it was 18.6%. For the same molecule, the haemolysis in test [4] was -0.102%.

Consider `COc1ccc2c(c1)nc(-c1c[nH]c3cc(N4CCOCC4)ccc13)c1[nH]ccc12`, for which the inhibition in test [1] is 95.9%; in [2] it was -104%; in [3], 101%; in test [5] it was 1.53%; in [6], 0.186%; in test [7], 53.1%. For the same molecule, the inhibition in test [8] was 98.5%; in test [9], 14.1%. Also, the haemolysis in test [4] came to 0.675%.

In the case of `O=C(CSc1nc(=O)[nH]c2c1CCC2)c1ccc(Cl)cc1`, the inhibition was 10.9% in test [1]; -110% in test [2]; -14.2% (inactive) in test [3]; 0.488% in [5]; -0.381% in [6]; 0% in test [7]. In addition, the inhibition in test [8] is -20%; in test [9], -22%. In addition, the haemolysis in [4] was 0.151%.

Take `CC(C)C(N)C(=O)NS(=O)(=O)c1cccc(-c2cc3ncnc(N)c3s2)c1` (stereo not given): the inhibition in [1] was -10.9%; in [2] it was -123%; in test [3], -22.3% (inactive); in test [5], 16.2%; in [6], -0.361%; in [7], -15.1%. The inhibition is -17.2% in [8] and -28.5% in test [9]. Further, the haemolysis in [4] came to 0.218%.

As for `Cc1ccn2c(=O)nc(SCC(=O)OCc3ccccc3)nc2c1`, the inhibition is 5.22% in test [1]; -102% in test [2]; 7% (inactive) in [3]; -0.191% in [5]; -0.803% in test [6]; 0.238% in test [7]. Moreover, the values for the inhibition in test [8] and in test [9] were -29.4% and -34.5%, respectively. The haemolysis in test [4] is -0.0134%.

In the case of `CC(C)c1cc(Nc2nc(N[C@@H](CO)C3CCCCC3)nc3[nH]ncc23)n[nH]1`, the inhibition in [1] was 57.6%; in test [2], -64%; in [3], -3.86%; in test [5] it was 0.54%; in test [6], -0.415%; in test [7], -4.22%. Moreover, the figures for the inhibition in test [8] and in test [9] were 99.1% and -18.2%, respectively. In [4], the haemolysis is 1.61%.

Turning to `O=c1[nH]c(=O)c2cc(S(=O)(=O)Nc3cc(F)c(N4CCC(N5CCOCC5)CC4)c(F)c3)ccc2[nH]1`, the inhibition in test [1] was 19.7%; in [2] it was -44.5%; in test [3] it was 14.7% (inactive); in test [5] it was 0.48%; in test [6], -0.0703%; in test [7], 4.34%. Moreover, the figures for the inhibition in test [8] and in [9] were 1.59% and -6.35%, respectively. The haemolysis in test [4] was found to be 0.307%.

For `Cc1cccc(C)c1OCC(O)CSc1ccccn1` (stereo not given), the inhibition in test [1] was 51.9%; in test [2], -34.4%; in [3] it was -7.89% (inactive); in test [5], -0.789%; in test [6] it was -0.104%; in test [7], 11.9%. For the same molecule, the inhibition in [8] is 59.6%; in [9] it was -44.2%. In addition, in [4], the haemolysis was 0.214%.

Regarding `CC1(C)C2CCC1(C)C(OCC(O)CNC1CCCCC1)C2` (stereo not given), the inhibition in test [1] was 79.1%; in test [2] it was 100%; in test [3] it was 17%; in [5] it was -0.797%; in [6], -1.25%; in test [7], 29.4%. Besides, the inhibition was determined as 100% in test [8] and 19.9% in test [9]. The haemolysis in test [4] stood at 0.00104%.

As to `O=C(N1CCCCC1)N1CCCCC1Cc1ccccc1` (stereo not given), the inhibition in test [1] was 16.8%; in [2], -79.6%; in test [3], 7% (inactive); in [5] it was 0.89%; in test [6] it was -0.54%; in [7], -2.26%. In addition, the inhibition is 18.1% in test [8] and -3.65% in [9]. In addition, the haemolysis in test [4] was -0.191%.

As to `COc1ccc(-c2nc(N3CCC(N(C)C)C3)c3cc(OC)c(OC)cc3n2)cc1` (stereo not given), the inhibition in [1] is 39.9%; in test [2], 2.3%; in test [3], 10.4% (inactive); in [5] it was 3.41%; in [6] it was 0.735%; in test [7] it was -3.73%. Further, the values for the inhibition in test [8] and in [9] were -11% and 6.35%, respectively. The haemolysis in test [4] was determined as 0.312%.

For `C=CCSc1nc2c(c(=O)[nH]1)C(c1ccc(N(C)C)cc1)C1=C(CCCC1=O)N2` (stereo not given), the inhibition in [1] is 1.16%; in test [2] it was 15.9%; in [3], -16.3% (inactive); in test [5], 0.543%; in test [6], -0.888%; in test [7], 1.79%. Besides, the results for the inhibition in [8] and in test [9] were -12.3% and -40%, respectively. Also, the haemolysis in [4] is -0.046%.

As to `CCOc1ccc2ncc(C#N)c(N3CCC(C(=O)NCc4ccccc4F)CC3)c2c1`, the inhibition is 1% in test [1]; -38.3% in test [2]; -21.2% (inactive) in test [3]; -1.25% in test [5]; -0.367% in test [6]; -5.66% in test [7]. The inhibition in [8] is -24%; in test [9], -44.6%. Besides, the haemolysis in test [4] amounted to 0.211%.

In the case of `O=C(N/N=C/c1cnc(C(F)(F)F)nc1)c1ccncc1`, the inhibition in test [1] is 21.6%; in [2], 17%; in [3], 16.7% (inactive); in test [5], 1.52%; in test [6], 0.125%; in test [7], 10.4%. Moreover, the inhibition was 11.2% in [8] and -2.16% in test [9]. The haemolysis in [4] came to 0.15%.

In the case of `COC(COc1cncc2nnc(-c3ccc(OC(F)F)cc3)n12)c1ccccc1` (stereo not given), the inhibition in [1] is -15.5%; in test [2] it was -17.3%; in [3], -22.8% (inactive); in [5], -0.713%; in test [6], -0.536%; in test [7] it was -16.4%. The results for the inhibition in test [8] and in test [9] were -28.1% and -38.8%, respectively. Also, the haemolysis in [4] is -0.0885%.

`O=C(Nc1ccc(-c2nn[nH]n2)cc1)c1ccc(Oc2ccccc2)cc1`: the inhibition in test [1] was 16.4%; in test [2], -19.7%; in test [3], 16.2% (inactive); in [5], -1.24%; in test [6] it was -0.941%; in [7] it was -0.833%. The inhibition in test [8] is 17.2%; in test [9], 0.27%. Also, the haemolysis in [4] is -0.191%.
